The record followed here is US9708628B2, “Cationic lipid having improved intracellular kinetics” (NOF CORPORATION, priority 2011, dated 2017).

One assay concerns HT1080 cells. The experiment in a line: Evaluation of endosome amount (Lysotracker Green). The following applies: 6 hr after transfection. It counts as cell-based. The protocol:
MENDs having a composition of B-2-4 (Example 4):DOPE:Chol=3:3:4, B-2 (Example 1):SOPE:Chol=5:3:2 were prepared by the method described in [Experimental Example 1] (2). For the preparation, PEG2000-DMG was used as PEG lipid, and MEND solutions corresponding to 0.55 mM of the lipid concentration were prepared.
HT1080 cells were plated on a glass bottom dish at 5×10^4 cells/2 mL/dish 24 hr before. MEND was diluted with DMEM (FBS 10%+) to achieve pDNA 1.6 μg/2 mL and transfected into the cells. The cells without transfection of MEND were used as a control. After 5.5 hr, Lysotracker Green (Life technologies) was added at 2 μL/dish and Hoechst 33342 (Dojindo) was further added at 2 μL/dish 30 min later. 6 hr after the transfection, the cells were washed twice with heparin (20 units/mL, 2 mL), Krebs buffer (1 mL) was added, and the cells were observed by a confocal laser scan microscope.
Endosome/lysosome and nucleus were shown in pseudo colors of green and blue, respectively. The relative endosome amount was calculated according to the following formula.

The next assay has as its system liver, lung and spleen. Briefly: Gene expression activity in liver, lung and spleen after tail vein administration of MEND. The note with it: 40 μg DNA. It counts as in vivo, ICR mice. The protocol:
A solution of pDNA encoding luciferase gene and protamine (maker) solution were diluted with 10 mM HEPES buffer to 0.3 mg/mL and 0.24 mg/mL, respectively. […] A solution (750 μL) of the electrostatic complex composed of gene and protamine was mixed with the lipid solution (750 μL), and the mixture was quickly stirred, diluted with 10 mM HEPES solution (pH 5.3) to 15 mL, and subjected to ultrafiltration using Amicon® Ultra-15 100K device at 3,000 rpm, 15 min, 25° C. The solution after ultrafiltration was diluted with 100 mM HEPES buffer (pH 7.4), and subjected to the ultrafiltration again. The solution was diluted with 10 mM HEPES buffer to 750 μL. […] The mice were euthanized by a cervical spine […] method 6, 24, 48, 72 hr later, and the liver, lung and spleen were isolated and frozen with liquid nitrogen. They were thawed in a Lysis buffer to prepare homogenates. They were centrifuged at 13,000 rpm, 10 min, 4° C., and the supernatant was collected and used as a measurement sample. The sample solution (20 μL) was mixed with a luciferase substrate (50 μL), and the luciferase activity was measured using Luminescenser-PSN (AB2200 ATTO). In addition, the concentration of the protein in the sample was quantified using a BCA protein assay kit, and the gene expression activity was measured as RLU/mg protein.

Consider `CC1=C(/C=C/C(C)=C/C=C/C(C)=C/C(=O)OCCCN(C)CCSSCCN(C)CCCOC(=O)/C=C(C)/C=C/C=C(C)/C=C/C2=C(C)CCCC2(C)C)C(C)(C)CCC1` [Example B-2-4], for which the relative endosome amount entry in the assay with HT1080 cells is “significant decrease in endosome than the untreated group and the B-2 treatment group”.

In the case of `CCCCCCCCCCCCCC(=O)OCCCN(C)CCSSCCN(C)CCCOC(=O)CCCCCCCCCCCCC` [Example B-2], in the assay on liver, lung and spleen, the “gene expression activity in the lung and spleen (organ selectivity)” value is “background-level”. In addition, in the assay with liver, lung and spleen (liver), the “time of peak/maximum gene expression activity” value was 48 h.
